Reference: patent publication US20080213125A1, “Apparatus and Method for Using Ozone as a Disinfectant” (Huawei Technologies Co. LTD., priority 2004, published 2008)
Several values for one entry are separate records, joined by “and”; a condition that tells them apart may be missing. Equal values may be shown once. Read-outs that look alike come from different tables or passages of the source.

Tests used:
[1] = test system: Herpes Simplex Virus (HSV); assay: Experiment #1: ozone gas exposure of virus on surfaces in a chamber
Feline calicivirus (FCV) [2] = assay: as above
[3] = test system: Mulluscum Contagiosum Virus (MCV)
Poliovirus [4] = conditions: under similar conditions (about 100 ppm chamber)
viruses [5] = test system: viruses
HSV [6] = assay: Experiment #2: ozone inactivation at different locations within a test room; conditions: 28 ppm, 60 minutes exposure; three samples at three locations in test room
FCV = assay: Experiment #3: reduced ozone doses and high humidity; conditions: high humidity, 20 ppm to 40 ppm, about 15 minutes
Poliovirus [7] = conditions: high humidity, 20 ppm to 40 ppm, about 15 minutes
HSV [8] = assay: Experiment #3: reduced ozone doses and high humidity; conditions: high humidity, 20 ppm to 40 ppm, about 15 minutes
[9] = test system: Herpes Simplex Virus (HSV); assay: Experiment #4: ozone gas against dried viruses on surfaces
influenza virus [10] = test system: influenza virus
rhinovirus = assay: Experiment #4: ozone gas against dried viruses on surfaces; conditions: dried state on glass, plastic, steel, wood and fabric
Poliovirus [11] = conditions: dried state on glass, plastic, steel, wood and fabric
viruses [12] = test system: viruses; remark: listed apart in the source
Feline calicivirus (FCV) [13] = test system: Feline calicivirus (FCV)
MS2 coliphage = conditions: aqueous, 20 seconds, ozone demand-free 0.05 M phosphate buffer (pH 6.9) at 22 degrees C.; cited from earlier work
Polio-virus type 3 = conditions: aqueous, 20 seconds, ozone demand-free 0.05 M phosphate buffer (pH 6.9) at 22 degrees C.; cited from earlier work
Polio-viruses = conditions: aqueous, 1.0 to 1.5 mg ozone/liter (dissolved); cited from earlier work
Polio-virus 1 (PV1) = conditions: steadily flowing water at 20 degrees C. and pH 7; cited from earlier work
Hepatitis A virus [14] = conditions: aqueous, 60 seconds, 1 mg/L or greater at all pH levels; cited from earlier work
HIV Type 1 = conditions: 2 hours, 1,200 ppm; cited from earlier work
factor VIII = factor VIII (Homo sapiens, UniProt P00451); conditions: plasma and immunoaffinity-purified preparations; 2 hours, 1,200 ppm; cited from earlier work
Chain of factor VIII (P00451 20-2351): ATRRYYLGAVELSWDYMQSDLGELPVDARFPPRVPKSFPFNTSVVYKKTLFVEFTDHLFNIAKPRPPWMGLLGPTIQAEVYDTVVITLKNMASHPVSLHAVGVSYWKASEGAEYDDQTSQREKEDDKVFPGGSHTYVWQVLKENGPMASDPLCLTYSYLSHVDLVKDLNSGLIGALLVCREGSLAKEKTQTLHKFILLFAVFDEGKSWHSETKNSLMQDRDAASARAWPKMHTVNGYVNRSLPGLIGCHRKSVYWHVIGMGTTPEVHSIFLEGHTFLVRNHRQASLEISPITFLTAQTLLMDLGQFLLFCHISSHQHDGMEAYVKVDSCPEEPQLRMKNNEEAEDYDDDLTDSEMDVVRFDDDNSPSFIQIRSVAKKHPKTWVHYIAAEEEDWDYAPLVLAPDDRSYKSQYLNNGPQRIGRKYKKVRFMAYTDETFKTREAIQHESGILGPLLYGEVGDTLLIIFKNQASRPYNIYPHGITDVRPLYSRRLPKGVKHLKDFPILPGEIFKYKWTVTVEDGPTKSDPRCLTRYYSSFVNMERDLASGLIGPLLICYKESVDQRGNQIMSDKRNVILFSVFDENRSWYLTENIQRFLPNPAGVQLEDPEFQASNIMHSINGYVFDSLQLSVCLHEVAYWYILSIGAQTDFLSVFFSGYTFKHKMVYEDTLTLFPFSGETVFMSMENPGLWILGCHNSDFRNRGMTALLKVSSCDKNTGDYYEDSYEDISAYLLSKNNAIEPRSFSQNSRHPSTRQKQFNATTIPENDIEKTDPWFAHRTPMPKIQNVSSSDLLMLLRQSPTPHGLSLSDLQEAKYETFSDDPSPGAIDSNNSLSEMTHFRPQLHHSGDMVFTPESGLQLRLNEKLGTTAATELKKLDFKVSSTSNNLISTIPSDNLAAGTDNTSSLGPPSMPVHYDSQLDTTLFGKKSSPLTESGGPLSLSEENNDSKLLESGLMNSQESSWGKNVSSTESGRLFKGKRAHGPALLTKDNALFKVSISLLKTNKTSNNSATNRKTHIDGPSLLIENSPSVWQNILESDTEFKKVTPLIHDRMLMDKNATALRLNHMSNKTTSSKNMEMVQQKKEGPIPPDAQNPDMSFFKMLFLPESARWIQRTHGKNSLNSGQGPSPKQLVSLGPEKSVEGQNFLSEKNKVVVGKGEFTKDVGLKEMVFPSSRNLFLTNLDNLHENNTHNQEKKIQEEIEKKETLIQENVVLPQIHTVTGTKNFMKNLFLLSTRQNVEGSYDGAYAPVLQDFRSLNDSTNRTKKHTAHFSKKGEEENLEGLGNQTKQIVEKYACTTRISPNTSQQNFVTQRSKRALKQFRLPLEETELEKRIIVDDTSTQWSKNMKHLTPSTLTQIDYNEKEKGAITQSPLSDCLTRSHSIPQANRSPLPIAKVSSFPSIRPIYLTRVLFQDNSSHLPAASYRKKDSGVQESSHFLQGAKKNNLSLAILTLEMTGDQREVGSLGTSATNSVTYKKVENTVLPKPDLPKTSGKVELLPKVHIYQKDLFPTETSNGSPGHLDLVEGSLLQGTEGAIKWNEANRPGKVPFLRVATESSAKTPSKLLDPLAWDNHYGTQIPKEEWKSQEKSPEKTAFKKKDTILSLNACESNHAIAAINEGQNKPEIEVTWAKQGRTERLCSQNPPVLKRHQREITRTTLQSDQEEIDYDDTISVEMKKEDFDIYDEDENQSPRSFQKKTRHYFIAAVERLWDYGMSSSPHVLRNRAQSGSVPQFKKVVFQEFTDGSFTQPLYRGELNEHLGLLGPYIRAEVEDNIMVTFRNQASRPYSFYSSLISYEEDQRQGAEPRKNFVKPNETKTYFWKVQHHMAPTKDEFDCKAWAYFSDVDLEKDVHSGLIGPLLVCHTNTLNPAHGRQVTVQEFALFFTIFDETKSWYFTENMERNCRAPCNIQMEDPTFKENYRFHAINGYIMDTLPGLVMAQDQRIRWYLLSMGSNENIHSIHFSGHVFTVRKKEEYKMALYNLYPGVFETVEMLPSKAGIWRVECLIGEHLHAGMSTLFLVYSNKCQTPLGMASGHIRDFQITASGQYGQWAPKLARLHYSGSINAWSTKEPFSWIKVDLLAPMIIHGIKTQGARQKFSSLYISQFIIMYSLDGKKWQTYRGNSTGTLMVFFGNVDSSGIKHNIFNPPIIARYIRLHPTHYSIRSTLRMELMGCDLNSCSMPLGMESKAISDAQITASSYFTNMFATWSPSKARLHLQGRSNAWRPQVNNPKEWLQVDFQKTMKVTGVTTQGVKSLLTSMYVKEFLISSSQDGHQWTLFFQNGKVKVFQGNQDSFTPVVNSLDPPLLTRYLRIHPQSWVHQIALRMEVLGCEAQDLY

Human rotavirus [15] = conditions: cited from earlier work
[16] = test system: Venezuelan equine encephalomyelitis virus; conditions: aqueous, 45 minutes, 0.025 mg of ozone per liter; control levels 10 (7.25-7.5); cited from earlier work
Poliovirus [17] = conditions: 0.1-2.0 mg/l, aqueous, cited from earlier work
HIV = conditions: serum and serum-supplemented media; tested 0.5 to 4.0 micrograms/ml−1; cited from earlier work
[18] = test system: HEp-2 cell-associated poliovirus (Sabin 1); conditions: cited from earlier work
[19] = test system: HEp-2 cell-associated coxsackievirus A9; conditions: aqueous, 30 seconds, 4.06-4.68 mg/liter; cited from earlier work
Influenza virus [20] = conditions: gaseous, in vivo, 0.5 ppm; cited from earlier work
Human rotavirus [21] = conditions: aqueous, 25 μg/ml; cited from earlier work
[22] = test system: Vesicular stomatitis virus (VSV); conditions: 3 to 14 mL of 1.4 mmol/L (65 micrograms/mL) to 1.6 mmoler/L, aqueous; cited from earlier work
bacteriophage phi 6 = conditions: 3 to 14 mL of 1.4 mmol/L (65 micrograms/mL) to 1.6 mmoler/L, aqueous; cited from earlier work
T1 phage = conditions: gaseous, 10 minutes, 10 ppm; cited from earlier work
Influenza virus [23] = conditions: inhaled, 0.5 ppm; cited from earlier work
[24] = test system: Respiratory syncytial virus; conditions: gaseous, in vitro, 2 hours, 1 ppm; cited from earlier work
Influenza virus [25] = conditions: continuous, 0.5 ppm; cited from earlier work
Influenza virus [26] = conditions: 3 hours (post infection), 0.6 ppm; cited from earlier work
Hepatitis A virus [27] = conditions: ozone and UV light, cited from earlier work
type 39 rhinovirus = conditions: cited from earlier work

Ozone
reduced the virus ([1]; 100 ppm for 20-30 minutes): more than 99% | inactivated virus infectivity ([1]; 100 ppm, 10 minutes): 90-95% | reduced the virus (Feline calicivirus (FCV) [2]; 100 ppm for 20-30 minutes): more than 99% | inactivated virus infectivity (Feline calicivirus (FCV) [2]; 100 ppm, 10 minutes): 90-95% | reduced the virus [3]: more than 99% | inactivation by ozone (Poliovirus [4]): inactivated | susceptibility of viruses to ozone on surfaces (viruses [5]): susceptible | virus inactivation in high humidity versus ambient humidity (viruses [5]): much more efficiently | virus infectivity after exposure (viruses [5]): no vilus infectivity could be detected at all | HSV inactivated (killed) (HSV [6]): 98% and 99.4% and 97.8% | inactivated (FCV): 99.91% | inactivated (Poliovirus [7]): more than 99.6% | inactivated (HSV [8]): more than 99% | reduced the virus ([9]; 100 ppm for 20 to 30 minutes): more than 99% | inactivation (kill) by ozone gas ([9]; dried state on glass, plastic, steel, wood and fabric): efficiently inactivate | reduced the virus (FV): more than 99% | reduced the virus (MCV): more than 99% | inactivation (kill) by ozone gas (influenza virus [10]): efficiently inactivate | inactivation (kill) by ozone gas (corona virus): efficiently inactivate | inactivation (kill) by ozone gas (rhinovirus): efficiently inactivate | inactivation (kill) by ozone gas (Poliovirus [11]): efficiently inactivate | susceptibility of viruses to ozone on surfaces (viruses [12]): susceptible | virus inactivation in high humidity versus ambient humidity (viruses [12]): much more efficiently | inactivation by the ozone generator (Feline calicivirus (FCV) [13]): efficiently inactivated | MS2 coliphage inactivated (MS2 coliphage): >99.99% of MS2 coliphage | more inactivation observed with MS2 coliphage than with poliovirus type 3 (Polio-virus type 3): inactivated, 1.6 log units more | Effectiveness (Polio-viruses): Dependant on the condition | Concentration for complete inactivation of PV1 (Polio-virus 1 (PV1)): 0.13 mg/L | complete inactivation (Hepatitis A virus [14]): complete (5 log) inactivation | inactivation (HIV Type 1): >11 log inactivation (NB. | effect on factor VIII activity (factor VIII): Minimal effect on factor VIII | sensitivity of human rotavirus to inactivation compared with simian rotavirus (Human rotavirus [15]): strikingly less sensitive to | inactivation [16]: Inactivation of 10 (6.5) median median cell culture infective doses | virus inactivated, Step 1 (Poliovirus [17]; Step 1: 0.2-1.0 s): Step 1: 95 to 99% of the virus | virus inactivated, Step 2 (Poliovirus [17]; Step 2: several minutes): Step 2: remainder inactivated | concentration at which complete inactivation of HIV obtained (HIV): obtained at 4.0 micrograms/ml−1 | Effectiveness (inactivation) [18]: Inactivated cell-associated | Effectiveness (inactivation) [19]: Inactivated cell-associated | Severity of infection (Influenza virus [20]): Severity of infection reduced | decrease of rotavirus infectivity (Human rotavirus [21]): 8 to 9 log10 TCID50/ml. | inactivated [22]: Inactivated by greater than 4 log10 | inactivated (bacteriophage phi 6): Inactivated by greater than 4 log10 | reduction in number of phages (T1 phage): 90% reduction in number of | distribution of viral antigen (Influenza virus [23]): well as altered the distribution | spread of infection (Influenza virus [23]): less widespread infection, as | percentage of cells infected, experimental versus control groups [24]: No difference | acute virus-induced lung injury & residual lung damage (Influenza virus [25]): exposure mitigates acute | mitigated the virus-induced acute lung injury (Influenza virus [25]): approximately 50%. Ozone | proliferation of virus in the lungs as quantitated by infectious virus titers (Influenza virus [25]): Ozone exposure did not alter | virus growth in nose (Influenza virus [26]): Complete inhibition of virus | virus titre after depuration (Hepatitis A virus [27]; from 1.72 log TCID50 ml(−1), within 24 h): [TCID50] ml(−1) to <1 log log TCID50 ml(−1) | virus titre after depuration (Hepatitis A virus [27]; from 3.82 log TCID50 ml(−1), within 48 h): ml(−1) to <1 log TCID50 ml(−1) | adverse effects in experimental group (type 39 rhinovirus; human, in vivo): placebo groups; no adverse | effect on individuals infected with rhinovirus (type 39 rhinovirus; human, in vivo): no effect | viral titres, experimental versus placebo groups (type 39 rhinovirus; inhaled, 0.3 ppm, 6 hours per day for five days): No difference in viral titres
